Format in all cases: functional
Test [1] is described as follows: nonselective inhibitors of cellular cAMP signaling, dose response, counter-screen for MC4R biased antagonist project, cell-based, TR-FRET cAMP detection (AID 602305).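 Also: U2OS cells stimulated with forskolin near its EC80 as the cAMP inducer; potency is for inhibition of forskolin-stimulated cAMP signaling.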
The target of test [2] is T1, Replicative DNA helicase DnaB (Mycobacterium tuberculosis, UniProt P9WMR3).
T1 sequence (P9WMR3 whole entry): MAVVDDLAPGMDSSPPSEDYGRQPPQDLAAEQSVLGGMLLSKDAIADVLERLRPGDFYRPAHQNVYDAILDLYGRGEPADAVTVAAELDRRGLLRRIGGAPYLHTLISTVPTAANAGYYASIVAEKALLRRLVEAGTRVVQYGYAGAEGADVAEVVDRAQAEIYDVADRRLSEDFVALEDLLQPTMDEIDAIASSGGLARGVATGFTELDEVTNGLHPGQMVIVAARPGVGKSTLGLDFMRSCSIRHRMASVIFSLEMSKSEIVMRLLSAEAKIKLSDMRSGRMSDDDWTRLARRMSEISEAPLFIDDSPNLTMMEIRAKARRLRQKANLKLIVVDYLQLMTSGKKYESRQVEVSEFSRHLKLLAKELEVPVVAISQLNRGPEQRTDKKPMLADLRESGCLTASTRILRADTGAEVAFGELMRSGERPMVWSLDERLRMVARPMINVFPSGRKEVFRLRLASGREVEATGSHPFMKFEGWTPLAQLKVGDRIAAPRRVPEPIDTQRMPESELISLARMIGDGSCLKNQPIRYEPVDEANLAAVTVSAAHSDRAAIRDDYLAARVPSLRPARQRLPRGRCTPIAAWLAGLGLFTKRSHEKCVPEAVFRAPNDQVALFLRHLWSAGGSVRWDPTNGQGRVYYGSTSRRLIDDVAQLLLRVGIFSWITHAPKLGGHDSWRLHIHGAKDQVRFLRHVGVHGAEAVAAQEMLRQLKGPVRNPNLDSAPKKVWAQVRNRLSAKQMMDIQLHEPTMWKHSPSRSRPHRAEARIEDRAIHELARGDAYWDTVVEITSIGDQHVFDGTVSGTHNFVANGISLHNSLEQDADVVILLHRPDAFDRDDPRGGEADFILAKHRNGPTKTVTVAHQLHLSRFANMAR
As to the kind of experiment: DnaB intein splicing inhibitors, dose response, biochemical, cell-free fluorescence (AID 449749).

The next test deals with T2, Protein RecA (Mycobacterium tuberculosis, UniProt P9WHJ3).
T2 sequence (P9WHJ3 whole entry): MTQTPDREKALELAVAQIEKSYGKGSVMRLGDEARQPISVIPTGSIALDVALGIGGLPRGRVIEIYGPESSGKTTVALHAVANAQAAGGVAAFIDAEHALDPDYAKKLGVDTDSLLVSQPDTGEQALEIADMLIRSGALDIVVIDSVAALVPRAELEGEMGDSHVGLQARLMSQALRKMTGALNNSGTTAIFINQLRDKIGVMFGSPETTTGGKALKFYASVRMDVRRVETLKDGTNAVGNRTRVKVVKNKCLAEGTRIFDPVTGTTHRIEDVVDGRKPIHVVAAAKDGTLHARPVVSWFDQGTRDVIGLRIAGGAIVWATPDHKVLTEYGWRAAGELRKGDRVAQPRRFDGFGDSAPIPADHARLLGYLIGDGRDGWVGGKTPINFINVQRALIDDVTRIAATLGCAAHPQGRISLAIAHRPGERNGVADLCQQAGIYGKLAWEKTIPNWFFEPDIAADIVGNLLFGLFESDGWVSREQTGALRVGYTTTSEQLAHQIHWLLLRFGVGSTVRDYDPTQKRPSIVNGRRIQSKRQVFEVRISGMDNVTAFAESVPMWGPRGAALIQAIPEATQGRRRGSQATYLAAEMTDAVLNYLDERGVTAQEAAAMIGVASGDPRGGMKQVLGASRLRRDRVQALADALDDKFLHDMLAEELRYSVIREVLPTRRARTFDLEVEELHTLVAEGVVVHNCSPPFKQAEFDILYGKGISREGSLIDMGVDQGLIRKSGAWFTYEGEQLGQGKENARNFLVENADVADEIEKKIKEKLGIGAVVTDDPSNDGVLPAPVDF
As to the kind of experiment: Fluorescence Cell-Free Homogeneous Dose Retest to Identify Inhibitors of RecA-Intein Splicing Activity. [Related pubchem assays (depositor defined):AID2097, AID2223, AID489010, AID492950].

The target of test [3] is G-protein coupled receptor 55 (Homo sapiens, UniProt Q9Y2T6). As to the kind of experiment: GPR55 agonists via beta-arrestin recruitment, primary screen, imaging, U2OS cells, beta-arrestin-GFP redistribution (AID 1961). Background: Activated receptors often draw arrestin, which recruitment assays turn into a signal.
Chain of G-protein coupled receptor 55 (Q9Y2T6 whole entry): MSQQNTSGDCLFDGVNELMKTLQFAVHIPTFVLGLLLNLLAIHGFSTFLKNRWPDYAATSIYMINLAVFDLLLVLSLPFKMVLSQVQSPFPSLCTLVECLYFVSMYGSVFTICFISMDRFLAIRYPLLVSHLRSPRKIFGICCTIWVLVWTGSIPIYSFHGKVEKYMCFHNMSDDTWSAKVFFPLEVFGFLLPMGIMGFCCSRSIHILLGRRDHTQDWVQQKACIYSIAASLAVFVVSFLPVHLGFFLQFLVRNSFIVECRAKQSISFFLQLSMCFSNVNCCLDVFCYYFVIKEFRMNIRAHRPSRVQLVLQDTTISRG
Another test has as its target Melanocortin receptor 4 (Homo sapiens, UniProt P32245). As to the kind of experiment: MC4R antagonist potency on cAMP, dose response, cell-based, TR-FRET, biased antagonists (AID 602298). (In general: TR-FRET usually uses a lanthanide donor and a delayed reading to cut background.);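 also: antagonist potency against agonist-stimulated cAMP production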
Test [4] is described as follows: Intein inhibitors as potential Tuberculosis drugs, a cytotoxicity screen. [Related pubchem assays (depositor defined):AID2221, AID2223, AID434968, AID435010, AID449749, AID449750, AID489010].
A short description of test [5]: Counterscreen for antagonists of the orexin 1 receptor (OX1R; HCRTR1): Fluorescence-based cell-based high throughput dose response assay to identify antagonists of the parental CHO cell line. [Related pubchem assays (depositor defined):AID434989, AID435008, AID463079, AID485270, AID492963, AID492964, AID492965, AID493232, AID504699, AID504701].
Test [6] addresses T3, Orexin/Hypocretin receptor type 1 (Homo sapiens, UniProt O43613).
T3 sequence (O43613 whole entry): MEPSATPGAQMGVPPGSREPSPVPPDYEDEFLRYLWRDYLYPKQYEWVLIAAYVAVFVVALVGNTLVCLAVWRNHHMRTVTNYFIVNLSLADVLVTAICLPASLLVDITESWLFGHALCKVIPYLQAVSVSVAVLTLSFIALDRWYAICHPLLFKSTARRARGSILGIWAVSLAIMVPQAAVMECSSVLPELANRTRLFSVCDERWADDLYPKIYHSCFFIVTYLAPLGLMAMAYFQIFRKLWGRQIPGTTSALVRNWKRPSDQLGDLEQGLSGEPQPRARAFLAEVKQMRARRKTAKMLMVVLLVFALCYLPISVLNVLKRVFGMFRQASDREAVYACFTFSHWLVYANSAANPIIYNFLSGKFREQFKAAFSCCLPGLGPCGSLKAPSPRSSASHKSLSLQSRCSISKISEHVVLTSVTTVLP
The test is described as follows: Fluorescence-based cell-based high throughput dose response assay for antagonists of the orexin 1 receptor (OX1R; HCRTR1). [Related pubchem assays (depositor defined):AID434989, AID435008, AID463079, AID485270, AID492963, AID492964, AID492965, AID493232, AID504717, AID504718].

The target in test [7] is T4, Orexin receptor type 2 (Homo sapiens, UniProt O43614). As to the kind of experiment: Counterscreen assay for antagonists of the orexin 1 receptor (OX1R; HCRTR1): Fluorescence-based cell-based dose response assay for antagonists of the orexin 2 receptor (OX2R; HCRTR2), run by assay provider. For orientation: The purpose of a counterscreen is to sort out artefacts and off-target activity.
T4 sequence (O43614 whole entry): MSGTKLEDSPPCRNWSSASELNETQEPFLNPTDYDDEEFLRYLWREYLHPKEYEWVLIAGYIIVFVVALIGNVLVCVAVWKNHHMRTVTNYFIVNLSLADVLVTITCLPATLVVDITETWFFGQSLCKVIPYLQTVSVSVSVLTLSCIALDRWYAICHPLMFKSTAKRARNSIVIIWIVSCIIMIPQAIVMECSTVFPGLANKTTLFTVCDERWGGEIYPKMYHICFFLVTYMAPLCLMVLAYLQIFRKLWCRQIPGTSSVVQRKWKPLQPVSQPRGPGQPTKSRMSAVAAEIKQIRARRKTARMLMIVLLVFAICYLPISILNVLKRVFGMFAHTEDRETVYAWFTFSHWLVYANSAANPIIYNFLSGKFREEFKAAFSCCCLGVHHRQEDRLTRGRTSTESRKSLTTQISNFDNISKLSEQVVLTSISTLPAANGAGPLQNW

For test [8], the target named is T3, Orexin/Hypocretin receptor type 1. As to the kind of experiment: Homogeneous Time Resolved Fluorescence (HTRF)-based cell-based high throughput dose response assay for antagonists of the orexin 1 receptor (OX1R; HCRTR1). [Related pubchem assays (depositor defined):AID434989, AID435008, AID463079, AID485270, AID492963, AID492964, AID492965, AID493232, AID504717, AID504718].

In test [9] the target is T4, Orexin receptor type 2. As to the kind of experiment: Counterscreen assay for antagonists of the orexin 1 receptor (OX1R; HCRTR1): Homogeneous Time Resolved Fluorescence (HTRF)-based cell-based dose response assay for antagonists of the orexin 2 receptor (OX2R; HCRTR2), run by assay provider.
The test system of a further test is CHO-K1. The test is described as follows: Counterscreen for antagonists of the orexin 1 receptor (OX1R; HCRTR1): Homogeneous time resolved fluorescence (HTRF)-based cell-based dose response assay to identify antagonists of the parental CHO-K1 cell line. [Related pubchem assays (depositor defined):AID434989, AID435008, AID463079, AID485270, AID492963, AID492964, AID492965, AID493232, AID504699, AID504701]. Conditions: Cricetulus griseus.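 Also: potency for inhibition of ATP-stimulated IP1 production as antagonists.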

The target in test [10] is Glycogen synthase kinase-3 beta (Homo sapiens, UniProt P49841).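 Also: value comes from a broad kinome profiling panel, with GSK3B as the panel member.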
Test [11] concerns the target Homeodomain-interacting protein kinase 2 (Homo sapiens, UniProt Q9H2X6).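 Also: measured within a kinome-wide kinase profiling panel, HIPK2 being one panel member.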
The target in test [12] is Serine/threonine-protein kinase pim-1 (Homo sapiens, UniProt P11309).
Chain of Serine/threonine-protein kinase pim-1 (P11309 whole entry): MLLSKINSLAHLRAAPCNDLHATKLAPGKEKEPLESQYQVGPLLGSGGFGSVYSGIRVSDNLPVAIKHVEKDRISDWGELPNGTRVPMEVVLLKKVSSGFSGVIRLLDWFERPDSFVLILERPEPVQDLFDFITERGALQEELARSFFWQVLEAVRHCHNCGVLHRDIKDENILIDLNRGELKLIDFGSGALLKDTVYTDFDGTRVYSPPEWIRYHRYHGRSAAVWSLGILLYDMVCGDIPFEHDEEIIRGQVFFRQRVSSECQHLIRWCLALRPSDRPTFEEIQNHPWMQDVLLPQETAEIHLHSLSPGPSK
The target of test [13] is Interleukin-1 receptor-associated kinase 4 (Homo sapiens, UniProt Q9NWZ3).
Chain of Interleukin-1 receptor-associated kinase 4 (Q9NWZ3 whole entry): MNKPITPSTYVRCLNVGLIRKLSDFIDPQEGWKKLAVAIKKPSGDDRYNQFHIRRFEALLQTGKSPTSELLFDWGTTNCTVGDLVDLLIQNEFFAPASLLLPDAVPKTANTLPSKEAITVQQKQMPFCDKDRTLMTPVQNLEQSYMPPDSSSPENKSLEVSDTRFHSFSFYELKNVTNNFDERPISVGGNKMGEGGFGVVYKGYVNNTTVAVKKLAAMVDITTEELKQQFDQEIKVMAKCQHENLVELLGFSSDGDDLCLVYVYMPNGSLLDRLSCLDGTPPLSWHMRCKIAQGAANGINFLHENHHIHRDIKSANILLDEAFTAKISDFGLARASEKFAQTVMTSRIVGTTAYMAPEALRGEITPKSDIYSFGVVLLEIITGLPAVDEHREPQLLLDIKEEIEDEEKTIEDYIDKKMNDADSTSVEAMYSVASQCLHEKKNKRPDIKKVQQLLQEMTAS
In test [14] the target is Mitogen-activated protein kinase kinase kinase kinase 4 (Homo sapiens, UniProt O95819).
Test [15] deals with Cell division cycle 7-related protein kinase (Homo sapiens, UniProt O00311).
Chain of Cell division cycle 7-related protein kinase (O00311 whole entry): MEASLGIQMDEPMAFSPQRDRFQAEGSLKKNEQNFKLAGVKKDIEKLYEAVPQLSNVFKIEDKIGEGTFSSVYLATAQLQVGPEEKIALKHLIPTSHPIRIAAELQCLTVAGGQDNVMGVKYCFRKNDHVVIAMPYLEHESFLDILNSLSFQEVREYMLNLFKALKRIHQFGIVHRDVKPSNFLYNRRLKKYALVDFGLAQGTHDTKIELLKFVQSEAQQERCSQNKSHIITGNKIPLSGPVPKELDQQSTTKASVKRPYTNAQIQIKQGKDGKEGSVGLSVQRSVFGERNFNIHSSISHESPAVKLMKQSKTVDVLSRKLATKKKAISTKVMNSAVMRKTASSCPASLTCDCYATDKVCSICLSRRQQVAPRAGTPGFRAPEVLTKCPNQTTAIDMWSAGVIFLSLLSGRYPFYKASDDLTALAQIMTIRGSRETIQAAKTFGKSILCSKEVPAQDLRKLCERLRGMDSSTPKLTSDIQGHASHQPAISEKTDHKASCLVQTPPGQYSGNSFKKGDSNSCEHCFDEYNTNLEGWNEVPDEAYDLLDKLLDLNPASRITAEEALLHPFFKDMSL
For test [16], the target named is cAMP-dependent protein kinase catalytic subunit alpha (Homo sapiens, UniProt P17612).
Test [17] addresses Mitogen-activated protein kinase 9 (Homo sapiens, UniProt P45984).
The target in test [18] is Vascular endothelial growth factor receptor 2 (Homo sapiens, UniProt P35968).
Chain of Vascular endothelial growth factor receptor 2 (P35968 whole entry): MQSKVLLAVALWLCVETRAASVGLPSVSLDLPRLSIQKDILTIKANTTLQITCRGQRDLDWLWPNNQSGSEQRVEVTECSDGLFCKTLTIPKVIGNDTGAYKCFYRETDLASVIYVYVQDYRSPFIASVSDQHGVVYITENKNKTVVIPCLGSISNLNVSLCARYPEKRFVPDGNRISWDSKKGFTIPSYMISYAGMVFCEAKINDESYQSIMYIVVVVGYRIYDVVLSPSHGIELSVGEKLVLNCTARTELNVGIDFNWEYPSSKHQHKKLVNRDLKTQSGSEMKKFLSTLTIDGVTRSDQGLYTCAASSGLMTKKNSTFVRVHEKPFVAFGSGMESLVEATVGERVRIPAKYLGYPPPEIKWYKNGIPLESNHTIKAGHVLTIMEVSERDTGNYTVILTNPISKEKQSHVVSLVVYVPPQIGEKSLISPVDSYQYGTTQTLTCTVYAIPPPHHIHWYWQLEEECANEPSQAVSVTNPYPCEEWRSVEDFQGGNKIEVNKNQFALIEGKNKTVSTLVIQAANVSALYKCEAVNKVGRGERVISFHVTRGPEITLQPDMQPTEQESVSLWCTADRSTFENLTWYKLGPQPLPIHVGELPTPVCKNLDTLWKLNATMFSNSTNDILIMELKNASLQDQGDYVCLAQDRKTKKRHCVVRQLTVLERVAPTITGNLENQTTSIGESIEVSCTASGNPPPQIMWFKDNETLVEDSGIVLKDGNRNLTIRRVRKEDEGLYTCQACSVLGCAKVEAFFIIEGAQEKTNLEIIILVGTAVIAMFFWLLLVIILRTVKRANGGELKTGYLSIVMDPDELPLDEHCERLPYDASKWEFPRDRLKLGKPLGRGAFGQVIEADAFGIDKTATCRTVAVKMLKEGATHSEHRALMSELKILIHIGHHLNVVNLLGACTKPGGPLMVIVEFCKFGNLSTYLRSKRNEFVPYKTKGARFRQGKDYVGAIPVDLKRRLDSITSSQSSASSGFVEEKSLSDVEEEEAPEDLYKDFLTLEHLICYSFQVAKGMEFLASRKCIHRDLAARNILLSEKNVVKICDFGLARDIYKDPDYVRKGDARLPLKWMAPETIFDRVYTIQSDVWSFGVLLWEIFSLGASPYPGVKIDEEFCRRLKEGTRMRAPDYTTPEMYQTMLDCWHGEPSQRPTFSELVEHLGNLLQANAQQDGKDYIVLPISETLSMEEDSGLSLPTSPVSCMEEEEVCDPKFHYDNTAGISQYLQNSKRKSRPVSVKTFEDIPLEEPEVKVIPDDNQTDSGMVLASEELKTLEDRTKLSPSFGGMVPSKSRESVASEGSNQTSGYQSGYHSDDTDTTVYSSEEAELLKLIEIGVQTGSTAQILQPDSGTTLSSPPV
The target of a further test is Aurora kinase A (Homo sapiens, UniProt O14965).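 Also: value from the Navigating the Kinome kinase panel profiling, panel entry STK6.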
Chain of Aurora kinase A (O14965 whole entry): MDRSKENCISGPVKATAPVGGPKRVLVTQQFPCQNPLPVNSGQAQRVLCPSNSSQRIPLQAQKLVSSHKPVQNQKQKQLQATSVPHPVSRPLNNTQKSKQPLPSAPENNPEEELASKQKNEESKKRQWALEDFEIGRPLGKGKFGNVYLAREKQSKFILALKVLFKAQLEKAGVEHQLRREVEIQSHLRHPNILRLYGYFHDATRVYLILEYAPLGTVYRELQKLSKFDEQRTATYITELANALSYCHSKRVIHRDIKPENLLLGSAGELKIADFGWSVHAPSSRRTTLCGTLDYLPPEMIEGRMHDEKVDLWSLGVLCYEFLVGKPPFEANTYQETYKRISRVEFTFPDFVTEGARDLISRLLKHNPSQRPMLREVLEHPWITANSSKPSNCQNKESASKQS
The next test addresses Aurora kinase B (Homo sapiens, UniProt Q96GD4).
Test [19] has as its target Sphingosine 1-phosphate receptor 2 (Homo sapiens, UniProt O95136). The test is described as follows: Late-stage fluorescence-based dose-response cell-based counterscreen assay to identify agonists of the Sphingosine 1-Phosphate Receptor 3 (S1P3): Sphingosine 1-Phosphate Receptor 2 (S1P2) agonist assay.
Test [20] concerns the target Sphingosine 1-phosphate receptor 4 (Homo sapiens, UniProt O95977). As to the kind of experiment: Late-stage fluorescence-based dose-response cell-based counterscreen assay to identify agonists of the Sphingosine 1-Phosphate Receptor 3 (S1P3): Sphingosine 1-Phosphate Receptor 4 (S1P4) agonist assay.
The target of test [21] is Mitogen-activated protein kinase 8 (Homo sapiens, UniProt P45983).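 Also: value comes from one member of a kinome-wide kinase profiling panel.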
Chain of Mitogen-activated protein kinase 8 (P45983 whole entry): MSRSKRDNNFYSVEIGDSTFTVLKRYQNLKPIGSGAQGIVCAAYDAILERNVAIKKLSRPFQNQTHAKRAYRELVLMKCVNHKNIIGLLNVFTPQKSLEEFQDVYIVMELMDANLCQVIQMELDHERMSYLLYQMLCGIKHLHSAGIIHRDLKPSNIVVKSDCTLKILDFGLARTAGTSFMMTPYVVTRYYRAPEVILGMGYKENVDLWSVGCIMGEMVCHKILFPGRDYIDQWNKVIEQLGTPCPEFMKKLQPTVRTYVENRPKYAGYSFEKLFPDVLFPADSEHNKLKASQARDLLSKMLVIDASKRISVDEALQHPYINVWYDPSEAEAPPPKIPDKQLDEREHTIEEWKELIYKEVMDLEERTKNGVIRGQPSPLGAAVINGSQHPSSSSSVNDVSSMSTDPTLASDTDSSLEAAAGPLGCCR
Test [22] addresses Serine/threonine-protein kinase D3 (Homo sapiens, UniProt O94806).

The source of these data is ChEMBL document CHEMBL1201862, “PubChem BioAssay data set” (2004).

Activity calls are given as the source filed them.
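For CC50 in this document: cells exposed to compound for 72 hours before luminescence readout.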

Chain of Melanocortin receptor 4 (P32245 whole entry): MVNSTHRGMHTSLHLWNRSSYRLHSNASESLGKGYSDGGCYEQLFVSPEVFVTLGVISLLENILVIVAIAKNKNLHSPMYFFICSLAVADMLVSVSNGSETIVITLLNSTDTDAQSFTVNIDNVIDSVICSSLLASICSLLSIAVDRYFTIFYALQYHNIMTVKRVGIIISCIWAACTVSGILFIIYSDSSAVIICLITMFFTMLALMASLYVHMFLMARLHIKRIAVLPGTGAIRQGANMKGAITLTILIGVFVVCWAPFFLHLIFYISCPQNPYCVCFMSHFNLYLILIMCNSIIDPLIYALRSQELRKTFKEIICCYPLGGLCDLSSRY
Chain of Aurora kinase B (Q96GD4 whole entry): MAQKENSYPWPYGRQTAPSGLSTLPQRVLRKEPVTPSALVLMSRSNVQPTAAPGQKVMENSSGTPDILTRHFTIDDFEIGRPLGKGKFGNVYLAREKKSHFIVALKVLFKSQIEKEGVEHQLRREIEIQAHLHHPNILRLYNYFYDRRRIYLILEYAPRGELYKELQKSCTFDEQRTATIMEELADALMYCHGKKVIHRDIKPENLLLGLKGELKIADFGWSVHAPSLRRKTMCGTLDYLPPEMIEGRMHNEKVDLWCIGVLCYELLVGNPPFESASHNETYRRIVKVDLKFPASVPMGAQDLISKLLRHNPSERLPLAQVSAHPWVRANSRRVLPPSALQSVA

`Cc1ccc2c(c1)c1c3n2CCN(C(=O)CCl)C3CCC1` (configuration not stated): the IC50 (in test [1]; at Melanocortin receptor 4) was > 64.6 µM (inactive) in each case. Moreover, the AC50 (in general, the concentration giving half of the maximal activity seen) in [2] is 2.05 µM (active). Also, the concentration giving a half-maximal response (EC50) (usually the concentration giving half of the maximal effect) at Protein RecA was 1.19 µM (active); in test [3] it was > 32 µM (inactive). The CC50 (commonly the concentration giving 50% cytotoxicity) in [4] is 24.7 µM (active).

Consider `O=C(C1CCCN1S(=O)(=O)c1cccc2cccnc12)N1CCn2c1nc1ccccc12` (configuration not stated), for which the IC50 (usually the midpoint of a concentration-inhibition curve) in test [5] was > 49.7 µM (inactive); in [6] it was 3.36 µM (active); at Orexin receptor type 2 [7] it was > 88.8 µM (inactive); in [8], 0.153 µM (active); on Orexin receptor type 2 [9], 9.68 µM (active); in the test with CHO-K1, > 66.2 µM (inactive).

As to `Cc1n[nH]c2ccc(-c3cncc(OCCNS(C)(=O)=O)c3)cc12`, the Ki (usually the equilibrium dissociation constant of an inhibitor or competing ligand from its target) in [10] was 1 µM (active); in test [11], 1 µM (active); in [12], 5.01 µM (active); in test [13], 3.98 µM (active); in test [14], 0.0794 µM (active); in test [15] it was 0.0631 µM (active). Also, the inhibitory constant (Ki) in test [16] was 6.31 µM (active).

For the compound `CC(C)(C)c1cc(NC(=O)c2cc3ccccc3s2)n(-c2cccc(OCC(=O)O)c2)n1`, the Ki in test [17] was 2 µM (active).

Turning to `O=S(=O)(Nc1ccc2c(c1)C(=NO)c1ccccc1-2)c1ccccc1F`, the Ki in test [18] was 0.794 µM (active); on Aurora kinase A, 0.794 µM (active); at Aurora kinase B, 0.02 µM (active).

Take `CCN(CC)C(=O)c1cc(C2CC2)on1`: the EC50 in test [19] and in [20] was > 50 µM (inactive) each time.

Turning to `CCOc1nc(NC(=O)C(C)C)cc(N)c1C#N`, the Ki is 1.26 µM (active) in test [21] and 7.94 µM (active) in test [22].
